# Measured values: patent US7666644B2, “Glyphosate-N-acetyltransferase (GAT) genes” (Verdia, Inc., priority 2004, dated 2010)
# B1: 20-30C6: evolved GAT enzyme, SEQ ID NO:683 (protein)
# chain: MIEVKPINAEDTYELRHRVLRPNQPIEACMFESDLLRGAFHLGGFYGGKLISVASFHQAEHTELQGQKQYQLRGVATLEGYREQKAGSSLVKHAEEILRKRGADILWCNARTSASGYYKKLGFSEQGEVFDTPPVGPHILMYKRIT
# modifications: D_GE002283_GAT20-30C6
# B2: B6: native GAT enzyme isolated from B. licheniformis strain B6, SEQ ID NO:7 (protein)
# chain: MIEVKPINAEDTYEIRHRILRPNQPLEACKYETDLLGGTFHLGGYYRDRLISIASFHQAEHSELEGQKQYQLRGMATLEGYREQKAGSTLIRHAEELLRKKGADLLWCNARTSVSGYYKKLGFSEQGGVYDIPPIGPHILMYKKLT
# modifications: Unidentified microorganism derived from soil sample.; B6 GAT
# Key:
# [1] = molecular target: non-native GAT polypeptide 25-8H7 (glyphosate-N-acetyltransferase), SEQ ID NO: 907 (Bacillus licheniformis, UniProt Q65LG7, E119R/E14D/E65Q/E67K/E68K/G37R/G38S/I132T/I135V/I15L/I19V/I53V/I91V/K101R/K144R/K58Q/L105M/L106I/L145I/L26I/L36T/L97I/M75V/R47G/R92K/T33S/T89S/V114A/Y130F/Y31F/Y45F); assay: GAT activity with respect to glyphosate, aspartate and serine (Example 29, Table 21); details: 25 mM Hepes, pH 6.8, 10% ethylene glycol
# Chain of non-native GAT polypeptide 25-8H7 (glyphosate-N-acetyltransferase), SEQ ID NO: 907 (Q65LG7 entry or part of it with the stated changes): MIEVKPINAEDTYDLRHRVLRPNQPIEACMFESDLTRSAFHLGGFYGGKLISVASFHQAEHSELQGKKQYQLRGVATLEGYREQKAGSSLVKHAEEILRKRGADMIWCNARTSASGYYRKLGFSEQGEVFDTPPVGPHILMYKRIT
# [2] = molecular target: T1, Bacillus licheniformis strain B6 glyphosate-N-acetyltransferase (GAT), native, SEQ ID NO:7 (Bacillus paralicheniformis, UniProt A0AAW6KBE1); assay: Apparent KM and kcat of purified GAT (Example 2); assay type: biochemical
# T1 construct: untagged
# Procedure: Lysis of the cells was effected by the addition of 1 ml of the following buffer to 0.2 g of cells: 25 mM HEPES, pH 7.3, 100 mM KCl and 10% methanol (HKM) plus 0.1 mM EDTA, 1 mM DTT, 1 mg/ml chicken egg lysozyme, and a protease inhibitor cocktail obtained from Sigma and used according to the manufacturer's recommendations. After 20 minutes incubation at room temperature (e.g., 22-25° C.), lysis was completed with brief sonication. The lysate was centrifuged and the supernatant was desalted by passage through Sephadex G25 equilibrated with HKM. Partial purification was obtained by affinity chromatography on CoA Agarose (Sigma). The column was equilibrated with HKM and the clarified extract was allowed to pass through under hydrostatic pressure.
# Purification to homogeneity was obtained by gel filtration of the partially purified protein through Superdex 75 (Pharmacia).
# Initial reaction rates were determined using mass spectrometric detection of N-acetyl glyphosate. Five μl were repeatedly injected into the instrument and reaction rates were obtained by plotting reaction time vs area of the integrated peak (FIG. 6).
# [3] = test system: native or low activity GAT enzymes (glyphosate-N-acetyltransferase); assay: Kinetics typical of native or low activity GAT enzymes (Example 4); assay type: biochemical
# [4] = test system: high activity GAT enzymes (glyphosate-N-acetyltransferase); assay: Kinetics typical of high activity GAT enzymes (Example 5); assay type: biochemical
# [5] = test system: GAT polypeptide (glyphosate-N-acetyltransferase), SEQ ID NO:445; assay: Standard spectrophotometric kcat and KM determination (Example 7); assay type: biochemical; details: 20 mM HEPES pH 6.8, 10% ethylene glycol, 0.2 mM acetyl CoA, about 23° C.
# Procedure: (§1) KM was calculated from the initial reaction rates obtained from concentrations of glyphosate ranging from 0.125 to 10 mM, using the Lineweaver-Burke transformation of the Michaelis-Menten equation. kcat/KM was determined by dividing the value determined for kcat by the value determined for KM.
# [6] = test system: GAT 20-30C6 (SEQ ID NO: 683) variant D34A; assay: GAT kinetics, 0 KCl, Bradford (Example 20, Table 12); assay type: biochemical; details: Bradford protein assay
# Procedure: as §1
# (§2) The amino acids aspartic acid (Asp, D), histidine (His, H) and cysteine (Cys, C) are known to be associated with the active sites of various acetyltransferase enzymes. To determine if any such residues play a role in GAT activity, all D, C, and H residues of GAT20-30C6 (SEQ ID NO:683) were individually mutated to alanine (Ala, A) and the mutated enzymes assayed for N-acetylglyphosate activity.
# [7] = test system: GAT 20-30C6 (SEQ ID NO: 683) variant H138A; assay: as above; assay type: biochemical; details: Bradford protein assay
# Procedure: as §1, §2
# [8] = test system: GAT 20-30C6 (SEQ ID NO: 683) variant H138R; assay: as above; assay type: biochemical; details: Bradford protein assay
# Procedure: as §1, §2
# [9] = test system: GAT 20-30C6 (SEQ ID NO: 683) variant H41A; assay: as above; assay type: biochemical; details: Bradford protein assay
# Procedure: as §1, §2
# [10] = test system: GAT 20-30C6 (evolved glyphosate-N-acetyltransferase), SEQ ID NO: 683; assay: as above; assay type: biochemical; details: Bradford protein assay
# Procedure: as §1, §2
# [11] = test system: GAT 20-30C6 (SEQ ID NO: 683) variant H138S; assay: as above; assay type: biochemical; details: Bradford protein assay
# [12] = Kinetics of D, C, H residue mutants of GAT20-30C6; assay type: biochemical; details: 0 KCl; Bradford protein assay
# Source text: as §2
# [13] = Transfer of the propionyl group from propionyl CoA to glyphosate, DTNB detection; assay type: biochemical; details: 1 mM propionyl CoA, 5 mM glyphosate or no glyphosate, 30 minutes
# Procedure: The ability of GAT variants (B6 (SEQ ID NO:7), 0—6D10 (SEQ ID NO:448), 17-15H3 (SEQ ID NO:601), and 20-8H12c (SEQ ID NO:817)) to transfer the propionyl group from propionyl CoA to glyphosate was tested in reaction mixtures containing 5 mM glyphosate or no glyphosate. Propionyl CoA was present at 1 mM. After 30 minutes the reactions were terminated and the presence of free […] was determined by the addition of DTNB.
# [14] = GAT activity with substrate phospho-L-serine (DTNB); assay type: biochemical
# Procedure: GAT activity of several GAT polypeptides of the present invention was evaluated with respect to a number of amino acid substrates. The GAT polypeptide, AcCoA and amino substrate were incubated in 25 mM Hepes, pH 6.8, 10% ethylene glycol in the wells of a 96-well polystyrene plate. After 30 minutes, the reactions were stopped by the addition of 30 μl of 10 mM 5,5′-dithiobis-2-nitrobenzoate (DTNB) in 500 mM Tris, pH 7.5. After 2 minutes, absorbance was read at 412 nm in a Spectramax Plus plate reader (Molecular Devices, Sunnyvale, Calif.).
molecule,measurement,setting,value
"N[C@@H](CO)C(=O)O [Serine, L-serine]",kcat ± SE,[1],6.47 ± 0.308 s⁻¹
"O=C(O)CNCP(=O)(O)O [glyphosate, N-phosphonomethylglycine]",kcat,"[2]; from Vmax at known enzyme concentration, 5 mM glyphosate, varying Acetyl CoA",0.1 s⁻¹
same,Km,"[2]; read-out: KM for glyphosate, apparent, saturating (200 μM) Acetyl CoA, 5 mM morpholine pH 7.7, 20% ethylene glycol",2900 ± 200 µM
same,kcat,[3],approximately 1 min^−1
same,Km,[3]; read-out: KM for glyphosate,1500 to 10000 µM
same,Km,[4],< 100 µM
same,kcat,[4],up to 400 min^−1
same,Km,[5],500 µM
same,kcat,[5],5.37 s⁻¹
same,Km,[6],2330 µM
same,kcat,[6],2.12 s⁻¹
same,kcat,[7],<0.00033 s⁻¹
same,Km,[8],17800 µM
same,kcat,[8],0.738 s⁻¹
same,Km,[9],4800 µM
same,kcat,[9],3.47 s⁻¹
same,Km,[10],182 µM
same,kcat,[10],6.43 s⁻¹
same,Km,[11],7100 µM
same,kcat,[11],0.0892 s⁻¹
B1,% kcat/Km of 20-30C6,[12],100%
B2,glyphosate-dependent hydrolysis of propionyl CoA,[13],showed glyphosate-dependent hydrolysis of propionyl CoA
same,activity with phospho-L-serine compared with glyphosate,[14],about 2 times
